Assays:
[1] = Solubility of TSC in aqueous PEG400/NaCl/sucrose formulations; type: physicochemical
Description: (§1) 1650 grams of sucrose was added to 51.59 Kg of WFI with mixing in a Nalgene tank containing a tank liner. 2475 grams of PEG400 was then added to the tank with mixing. After the sucrose and PEG400 were completely dissolved, 110 grams of TSC was added and the solution was mixed at room temperature for a minimum of 30 minutes or until the solution was clear. The solution was then filtered through a 0.45 μm glass fiber prefilter+0.2 μm sterile filter at a pump speed of 700 mL/min into a 100 L Biobag. A sample of the filtrate was pulled from the Biobag solution for a bioburden test. The Biobag was stored at 2-8° C. for at least 12 hours and then brought to room temperature and sterile filtered through 0.45 μm glass fiber prefilter+0.2 μm sterile filter at a pump speed of 700 mL/min to a 100 L Biobag. The sterile filtrate was then filled into amber 10R vials with a target 10.5 ml fill volume.
Other exemplary TSC aqueous solutions were formulated with varying concentrations of PEG400, NaCl, sucrose and TSC concentrations.
(§2) All formulations could be carried out at room temperature with mixing. The dissolution of TSC was generally completed within 10 minutes. […] The solution pH is around 8.7 and no further pH adjustment was needed. The final formulation has an osmolality around 270 mOsm.

[2] = Properties of TSC aqueous formulation (dissolution, crash-out on dilution/storage, pH, osmolality); type: physicochemical
Description: as §1, §2

Observation (solubility) ([1]; PEG400 2% (v/v), NaCl 0%, sucrose 0%, TSC 2 mg/mL): soluble | Observation (solubility) ([1]; PEG400 4% (v/v), NaCl 0%, sucrose 0%, TSC 4 mg/mL): soluble | Observation (solubility) ([1]; PEG400 4% (v/v), NaCl 0%, sucrose 3% (w/v), TSC 2 mg/mL): soluble | Observation (solubility) ([1]; PEG400 4% (v/v), NaCl 0.9% (w/w), sucrose 0%, TSC 2 mg/mL (first of two identical lines)): partially soluble | Observation (solubility) ([1]; PEG400 4% (v/v), NaCl 0.9% (w/w), sucrose 0%, TSC 2 mg/mL (second of two identical lines)): soluble | Observation (solubility) ([1]; PEG400 4% (v/v), NaCl 0.9% (w/w), sucrose 0%, TSC 4 mg/mL): partially soluble | Observation (solubility) ([1]; PEG400 6% (v/v), NaCl 0%, sucrose 0%, TSC 4 mg/mL): soluble | Observation (solubility) ([1]; PEG400 8% (v/v), NaCl 0%, sucrose 0%, TSC 8 mg/mL): saturated with some | Observation (solubility) ([1]; PEG400 80% (v/v), NaCl 0% (w/w), sucrose 0% (w/v), TSC 20 mg/mL): soluble | dissolution of TSC, time to completion ([2]; all formulations, room temperature with mixing): ≤ 10 min | TSC crash out of solution after storage ([2]; storage at 2-8° C.): No TSC was observed to crash out | TSC crash out of the solution upon dilution ([2]; ten times dilution in 0.9% saline, 2 mg/mL formulation): No TSC was observed to crash out
SMILES: CC(/C=C/C=C(\C)C(=O)[O-])=C\C=C\C=C(C)\C=C\C=C(/C)C(=O)[O-].[Na+].[Na+] [TSC, trans sodium crocetinate]

From patent US20240350446A1, “CAROTENOID SOLUTIONS AND USES THEREOF” (L.E.A.F. HOLDINGS GROUP LLC, priority 2020, published 2024)
